No end group written: not given here.
Assays:
DLD-1 tumors = assay: MRMI of EDB-FN with MT218, DLD-1 xenografts; type: in vivo, mice; conditions: 40 μmol/kg MT218, 25 min post-injection
Procedure: (§1) Nude athymic mice (6-week-old nu/nu females) were purchased from The Jackson Laboratory (Bar Harbor, […]) and housed in the Animal Facility at CWRU. All the animal experiments were performed according to the protocol approved by the IACUC of CWRU. For assessment of drug resistance, 2 drug-resistant and 2 non-drug-resistant models were set up. About 3-4×10^6 DLD-1, RKO, DLD1-DR, and RKO-DR cells suspended in Matrigel-PBS mixture (1:1) were subcutaneously injected in the left flanks of nude mice (100 μL per mouse, 5 mice per group×4 models=20 mice). After 9 days when the tumors reached 100-200 mm3, MRMI was performed on the 4 xenograft models with 40 μmol/kg dose of MT218. The animals were then euthanized, and the tumors were harvested for post-mortem histology and IHC.
(§2) MT218 was synthesized as previously described. Ayat, N. R., et al., ACS Med Chem Lett, 2018. 9(7): p. 730-735. Briefly, click reaction between alkynyl-ZD2 and N3-Gd(HP-DO3A) was performed in the presence of CuSO4 and ascorbate at room temperature, followed by FLASH chromatography purification and validation of MT218 by MALDI-TOF mass spectrometry (m.w. 1443). […] Contrast-to-noise ratios (CNRs) were calculated as (mean tumor intensity—mean muscle intensity)/standard deviation of noise. […]

RKO tumors = assay: MRMI of EDB-FN with MT218, RKO xenografts; type: in vivo, mice; conditions: 40 μmol/kg MT218, 25 min post-injection
Procedure: as §1, §2

Relaxivity measurements = type: physicochemical
Procedure: The T1 and T2 values of MT218 and Gd(HP-DO3A) solutions were determined using a 3T MRS 3000 scanner (MR Solutions, Guildford, UK). Solutions of MT218 were prepared at concentrations of 0, 0.25, 0.5, 1, and 2 mM in DPBS buffer (Gibco, Gaithersburg, MD). T1 values were measured using an inversion recovery-fast low angle shot (IR-FLASH) sequence (i=10 ms, TE=4 ms, FA=8°, echoes/frames=128, FOV=40 mm×40 mm, slice thickness =2 mm, number of averages=1, time delay=4000 ms, sample period=200, matrix=256×128). T2 values were obtained using a multi-echo multi-slice (MEMS) sequence (TE=15 ms, […], echoes=10, FOV: 40 mm×40 mm, slice thickness=1 mm, number of averages=1, matrix=256×192). The r1 and r2 relaxivities were calculated from the slopes of 1/T1 and 1/T2 vs. Gd concentration plots, respectively.

[1] = test system: BxPC3-GFP-Luc intrapancreatic tumors; assay: MRMI of BxPC3-GFP-Luc intrapancreatic tumors; type: in vivo, mice
Procedure: For flank xenograft models, 4×10^6 Capan-1 cells suspended in 100 μL of a 6 mg/mL Matrigel (Corning, Corning, NY) solution was injected subcutaneously into the flank of eight-week-old female nu/nu mice. The tumor bearing mice were imaged after tumor volumes exceeded 300 mm^3. For orthotopic intrapancreatic models, the pancreas of four-week-old female nu/nu mice were surgically exposed and 1×10^6 BxPC3-GFP-Luc or PANC-1-GFP-Luc cells suspended in 100 μL of an Matrigel solution (6 mg/mL) was injected into the pancreatic tissue. Prior to imaging, growth of tumor was verified by bioluminescence imaging with intraperitoneal injection of d-luciferin on IVIS Spectrum system (Perkin Elmer, Waltham, MA).
Mice bearing intrapancreatic tumors were anesthetized and a tail vein catheter was inserted. Image acquisition was performed on a MR Solutions 3T MRS 3000 scanner with a mouse radiofrequency coil. Axial images were obtained using a Fast Spin Echo (FSE) MRI sequence (305 ms TR, 11 ms TE, 90° F.A, 4 cm×4 cm FOV, 1 mm slice thickness, 10 slices, echo train length=4, echo spacing=11 ms, 4 averages, 256×256 matrix, […] cm/pixel resolution) with respiratory gating. Images were acquired before contrast and at different time points after contrast injection at a dose of 0.1 mmol/kg (100 μL). For competitive binding experiments, a 5:1 molar ratio of free ZD2 peptide to MT218 was injected in mice bearing intrapancreatic BxPC3 tumor xenografts (n=3) at a dose of 0.1 mmol MT218/kg (100 μL). Images obtained on the MR Solutions 3T scanner were normalized using the Surscalereader.exe (MR Solutions, Guildford, UK) program supplied.
Image files were exported and analyzed in Horus software. ROIs were drawn in the tumor, liver, kidney, and muscle. Muscle ROIs were taken from muscle, with other structures (liver, kidney, tumor) identified after comparison with published images and comparison with anatomical landmarks or bioluminescent imaging. Size of ROIs drawn for image analysis are summarized in Supplemental Table S1. The contrast-to-noise ratio of the tumor (CNR) was calculated using the following equation, where σ_noise is the standard deviation of intensities from an ROI drawn outside of the mouse body:
Image contrast was reported as fold enhancement of contrast to noise ratio of postcontrast images over precontrast images using Fold Enhancement=CNRpost/CNRpre. Statistical analysis of CNR was performed in Minitab Express (Minitab Inc, State College, PA). One-way ANOVA with Fisher Individual Tests for Differences of Means post-hoc testing was performed to determine statistical significance between greater than two means (p<0.05). Student's T test was used to determine statistical significance between two means (p<0.05).

PC3 tumors = assay: MRMI with MT218, PC3 xenografts; type: in vivo, mice; conditions: 0.04 mmol Gd/kg
From the text: Xenograft models were established by subcutaneous flank injections in athymic nu/nu mice for the 4 prostate cancer cells and tested with MRMI using 0.04 mmol Gd/kg of MT218.

For “ZD2-N3-Gd(HP-DO3A) (TVRTSAD; also: conjugated to Gd(HP-DO3A) by click reaction of alkynyl-ZD2 with N3-Gd(HP-DO3A), residue of attachment not given here, Gd complex) [MT218, EDB-FN-targeted MRI contrast agent; ZD2 peptide conjugated to the clinical macrocyclic agent Gd(HP-DO3A)]”, the “increase in CNRs over the pre-contrast” value (DLD-1 tumors) was 1.53 fold, the “increase in CNRs over the pre-contrast” value (RKO tumors) was 1.4 fold and the T1 relaxivity (Relaxivity measurements; at 3T (Example 1)) was 6.13 mM⁻¹ s⁻¹. For the same substance, the T1 relaxivity (Relaxivity measurements; at 3 T, DPBS buffer) was 6.07 ± 1.13 mM⁻¹ s⁻¹, the T2 relaxivity (Relaxivity measurements; at 3 T, DPBS buffer) was 8.20 ± 0.18 s⁻¹ mM⁻¹ and the “tumor CNR increase” value ([1]; 0.1 mmol/kg, 10 min post-injection) was 5.3 fold. For the same substance, the “CNR increase with co-injection of excess free ZD2 peptide” value ([1]; 5:1 molar ratio of free ZD2 peptide to MT218, 0.1 mmol MT218/kg) was “approximately 2.5 fold”, the “CNR compared to the clinical agent Gd(HP-DO3A)” value ([1]; BxPC3-GFP-Luc) was 212 % CNR of control and the “CNR increase with MT218 without the free peptide” value ([1]; competitive binding experiment, 0.1 mmol/kg) was “ca. 4.5 fold”. The “CNR of PC3 tumors relative to PC3-DR tumors” value (PC3 tumors) was 3.3 fold and the “CNR over the pre-contrast” value (PC3 tumors; PC3 tumors, 20 min post-injection) was 5 fold.

From patent publication US20240374763A1, “DIAGNOSIS AND MONITORING USING EXTRADOMAIN-B FIBRONECTIN TARGETED PROBES” (Case Western Reserve University, priority 2020, published 2024)
